What was measured:
Type in all cases: in vivo
Glycine max (GLXMA) [1] = assay: Pre-emergence herbicidal evaluation, soyabeans
In short: (§1)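 Seeds planted in potting soil, then pots sprayed pre-emergence with aqueous acetone solution of test compound at about 0.0125 to 0.4 kg/ha. Kept under standard greenhouse care; injury rated 2 to 4 weeks after treatment.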

Oryza sativum (ORYSA) [2] = assay: Pre-emergence herbicidal evaluation, rice
In short: as §1

[3] = tested on: Triticum aestivum (TRZAW); assay: Pre-emergence herbicidal evaluation, winter wheat
In short: as §1

Zea mays (ZEAMX) = assay: Pre-emergence herbicidal evaluation, maize
In short: as §1

[4] = tested on: Abutilon theophrasti (ABUTH); assay: Pre-emergence herbicidal evaluation, velvetleaf
In short: as §1

[5] = tested on: Ambrosia artemiisifolia (AMBEL); assay: Pre-emergence herbicidal evaluation, ragweed
In short: as §1

[6] = tested on: Ipomoea hederacea (IPOHE); assay: Pre-emergence herbicidal evaluation, morning glory
In short: as §1

Lamium purpureum (LAMPU) [7] = assay: Pre-emergence herbicidal evaluation, purple deadnettle
In short: as §1

Stellaria media (STEME) [8] = assay: Pre-emergence herbicidal evaluation, chickweed
In short: as §1

[9] = tested on: Alopecurus myosuroides (ALOMY); assay: Pre-emergence herbicidal evaluation, black grass
In short: as §1

[10] = tested on: Echinochloa grus galli (ECHCG); assay: Pre-emergence herbicidal evaluation, barnyard grass
In short: as §1

Setaria viridis (SETVI) = assay: Pre-emergence herbicidal evaluation, green foxtail
In short: as §1

Glycine max (GLXMA) [11] = assay: Post-emergence herbicidal evaluation, soyabeans; details: rated 2 to 4 weeks after treatment
Protocol: [table] [table] […] These acetone solutions are diluted with water and the resulting formulations applied at dosage levels equivalent of about 0.03 to 0.4 kg per hectare of test compound per pot. After spraying the plants are placed on greenhouse benches and are cared for in the usual manner, commensurate with conventional greenhouse practices. From 2 to 4 weeks after treatment, the seedling plants are examined and rated according to the rating system provided above. A rating 0 indicates growth as untreated control, a rating 9 indicates death.

Hordeum vulgare (HORVW) = assay: Post-emergence herbicidal evaluation, winter barley; details: rated 2 to 4 weeks after treatment
In short: (§2)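 Post-emergence spray of test compound, from acetone solutions diluted in water, at about 0.03 to 0.4 kg/ha per pot, plants then kept under standard greenhouse conditions. Injury rated 2 to 4 weeks after treatment on a 0 (as untreated) to 9 (death) scale.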

Oryza sativum (ORYSA) [12] = assay: Post-emergence herbicidal evaluation, rice; details: rated 2 to 4 weeks after treatment
In short: as §2

[13] = tested on: Triticum aestivum (TRZAW); assay: Post-emergence herbicidal evaluation, winter wheat; details: rated 2 to 4 weeks after treatment
In short: as §2

[14] = tested on: Abutilon theophrasti (ABUTH); assay: Post-emergence herbicidal evaluation, velvetleaf; details: rated 2 to 4 weeks after treatment
In short: as §2

[15] = tested on: Ambrosia artemiisifolia (AMBEL); assay: Post-emergence herbicidal evaluation, ragweed; details: rated 2 to 4 weeks after treatment
In short: as §2

Galium aparine (GALAP) = assay: Post-emergence herbicidal evaluation, cleaver; details: rated 2 to 4 weeks after treatment
In short: as §2

[16] = tested on: Ipomoea hederacea (IPOHE); assay: Post-emergence herbicidal evaluation, morning glory; details: rated 2 to 4 weeks after treatment
In short: as §2

Lamium purpureum (LAMPU) [17] = assay: Post-emergence herbicidal evaluation, purple deadnettle; details: rated 2 to 4 weeks after treatment
In short: as §2

[18] = tested on: Matricaria inodora (MATIN); assay: Post-emergence herbicidal evaluation, mayweed; details: rated 2 to 4 weeks after treatment
In short: as §2

Solanum nigrum (SOLNI) = assay: Post-emergence herbicidal evaluation, black nightshade; details: rated 2 to 4 weeks after treatment
In short: as §2

Stellaria media (STEME) [19] = assay: Post-emergence herbicidal evaluation, chickweed; details: rated 2 to 4 weeks after treatment
In short: as §2

[20] = tested on: Alopecurus myosuroides (ALOMY); assay: Post-emergence herbicidal evaluation, black grass; details: rated 2 to 4 weeks after treatment
In short: as §2

[21] = tested on: Digitaria sanguinalis (DIGSA); assay: Post-emergence herbicidal evaluation, large crabgrass; details: rated 2 to 4 weeks after treatment
In short: as §2

**Q.** What does the source list for `Cc1cc(OC=CCC(F)(F)F)nc(Oc2cc(C(F)(F)F)nn2C)c1` [Example 2, 2-(1-Methyl-3-trifluoromethylpyrazol-5-yloxy)-4-methyl-6-(4,4,4-trifluorobut-1-enyloxy)pyridine]?
**A.** GLXMA rating (Glycine max (GLXMA) [1]; dose 0.013 kg/ha): 0 (0 - No effect); GLXMA rating (Glycine max (GLXMA) [1]; dose 0.025 kg/ha): 1 (1 - Trace effect); GLXMA rating (Glycine max (GLXMA) [1]; dose 0.4 kg/ha): 4 (4 - Injury); ORYSA rating (Oryza sativum (ORYSA) [2]; dose 0.013 kg/ha): 0 (0 - No effect); ORYSA rating (Oryza sativum (ORYSA) [2]; dose 0.025 kg/ha): 1 (1 - Trace effect); ORYSA rating (Oryza sativum (ORYSA) [2]; dose 0.1 kg/ha): 2 (2 - Slight effect); ORYSA rating (Oryza sativum (ORYSA) [2]; dose 0.4 kg/ha): 3 (3 - Moderate effect); TRZAW rating ([3]; dose 0.013 kg/ha): 0 (0 - No effect); TRZAW rating ([3]; dose 0.025 kg/ha): 0 (0 - No effect); TRZAW rating ([3]; dose 0.1 kg/ha): 1 (1 - Trace effect); TRZAW rating ([3]; dose 0.4 kg/ha): 3 (3 - Moderate effect); ZEAMX rating (Zea mays (ZEAMX); dose 0.013 kg/ha): 0 (0 - No effect); ZEAMX rating (Zea mays (ZEAMX); dose 0.025 kg/ha): 1 (1 - Trace effect); ZEAMX rating (Zea mays (ZEAMX); dose 0.1 kg/ha): 2 (2 - Slight effect); ZEAMX rating (Zea mays (ZEAMX); dose 0.4 kg/ha): 4 (4 - Injury); ABUTH rating ([4]; dose 0.013 kg/ha): 1 (1 - Trace effect); ABUTH rating ([4]; dose 0.025 kg/ha): 4 (4 - Injury); ABUTH rating ([4]; dose 0.1 kg/ha): 6 (6 - Herbicidal effect); ABUTH rating ([4]; dose 0.4 kg/ha): 9 (9 - Complete kill); AMBEL rating ([5]; dose 0.013 kg/ha): 1 (1 - Trace effect); AMBEL rating ([5]; dose 0.025 kg/ha): 3 (3 - Moderate effect); AMBEL rating ([5]; dose 0.1 kg/ha): 8 (8 - Approaching complete kill); AMBEL rating ([5]; dose 0.4 kg/ha): 9 (9 - Complete kill); IPOHE rating ([6]; dose 0.013 kg/ha): 1 (1 - Trace effect); IPOHE rating ([6]; dose 0.025 kg/ha): 3 (3 - Moderate effect); IPOHE rating ([6]; dose 0.1 kg/ha): 3 (3 - Moderate effect); IPOHE rating ([6]; dose 0.4 kg/ha): 7 (7 - Good herbicidal effect); LAMPU rating (Lamium purpureum (LAMPU) [7]; dose 0.013 kg/ha): 8 (8 - Approaching complete kill); LAMPU rating (Lamium purpureum (LAMPU) [7]; dose 0.025 kg/ha): 8 (8 - Approaching complete kill); LAMPU rating (Lamium purpureum (LAMPU) [7]; dose 0.1 kg/ha): 9 (9 - Complete kill); LAMPU rating (Lamium purpureum (LAMPU) [7]; dose 0.4 kg/ha): 9 (9 - Complete kill); STEME rating (Stellaria media (STEME) [8]; dose 0.013 kg/ha): 0 (0 - No effect); STEME rating (Stellaria media (STEME) [8]; dose 0.025 kg/ha): 0 (0 - No effect); STEME rating (Stellaria media (STEME) [8]; dose 0.1 kg/ha): 9 (9 - Complete kill); STEME rating (Stellaria media (STEME) [8]; dose 0.4 kg/ha): 9 (9 - Complete kill); ALOMY rating ([9]; dose 0.013 kg/ha): 1 (1 - Trace effect); ALOMY rating ([9]; dose 0.025 kg/ha): 1 (1 - Trace effect); ALOMY rating ([9]; dose 0.1 kg/ha): 7 (7 - Good herbicidal effect); ALOMY rating ([9]; dose 0.4 kg/ha): 9 (9 - Complete kill); ECHCG rating ([10]; dose 0.013 kg/ha): 0 (0 - No effect); ECHCG rating ([10]; dose 0.025 kg/ha): 2 (2 - Slight effect); ECHCG rating ([10]; dose 0.1 kg/ha): 8 (8 - Approaching complete kill); ECHCG rating ([10]; dose 0.4 kg/ha): 9 (9 - Complete kill); SETVI rating (Setaria viridis (SETVI); dose 0.013 kg/ha): 5 (5 - Definite injury); SETVI rating (Setaria viridis (SETVI); dose 0.025 kg/ha): 6 (6 - Herbicidal effect); SETVI rating (Setaria viridis (SETVI); dose 0.1 kg/ha): 9 (9 - Complete kill); SETVI rating (Setaria viridis (SETVI); dose 0.4 kg/ha): 9 (9 - Complete kill); GLXMA rating (Glycine max (GLXMA) [11]; dose 0.03 kg/ha): 7 (7 - Good herbicidal effect); GLXMA rating (Glycine max (GLXMA) [11]; dose 0.1 kg/ha): 8 (8 - Approaching complete kill); GLXMA rating (Glycine max (GLXMA) [11]; dose 0.4 kg/ha): 8 (8 - Approaching complete kill); HORVW rating (Hordeum vulgare (HORVW); dose 0.03 kg/ha): 3 (3 - Moderate effect); HORVW rating (Hordeum vulgare (HORVW); dose 0.1 kg/ha): 3 (3 - Moderate effect); HORVW rating (Hordeum vulgare (HORVW); dose 0.4 kg/ha): 3 (3 - Moderate effect); ORYSA rating (Oryza sativum (ORYSA) [12]; dose 0.03 kg/ha): 2 (2 - Slight effect); ORYSA rating (Oryza sativum (ORYSA) [12]; dose 0.1 kg/ha): 3 (3 - Moderate effect); ORYSA rating (Oryza sativum (ORYSA) [12]; dose 0.4 kg/ha): 3 (3 - Moderate effect); TRZAW rating ([13]; dose 0.03 kg/ha): 2 (2 - Slight effect); TRZAW rating ([13]; dose 0.1 kg/ha): 3 (3 - Moderate effect); TRZAW rating ([13]; dose 0.4 kg/ha): 3 (3 - Moderate effect); ABUTH rating ([14]; dose 0.03 kg/ha): 8 (8 - Approaching complete kill); ABUTH rating ([14]; dose 0.1 kg/ha): 8 (8 - Approaching complete kill); ABUTH rating ([14]; dose 0.4 kg/ha): 9 (9 - Complete kill); AMBEL rating ([15]; dose 0.03 kg/ha): 5 (5 - Definite injury); AMBEL rating ([15]; dose 0.1 kg/ha): 6 (6 - Herbicidal effect); AMBEL rating ([15]; dose 0.4 kg/ha): 8 (8 - Approaching complete kill); GALAP rating (Galium aparine (GALAP); dose 0.03 kg/ha): 5 (5 - Definite injury); GALAP rating (Galium aparine (GALAP); dose 0.1 kg/ha): 7 (7 - Good herbicidal effect); GALAP rating (Galium aparine (GALAP); dose 0.4 kg/ha): 9 (9 - Complete kill); IPOHE rating ([16]; dose 0.03 kg/ha): 8 (8 - Approaching complete kill); IPOHE rating ([16]; dose 0.1 kg/ha): 9 (9 - Complete kill); IPOHE rating ([16]; dose 0.4 kg/ha): 9 (9 - Complete kill); LAMPU rating (Lamium purpureum (LAMPU) [17]; dose 0.03 kg/ha): 8 (8 - Approaching complete kill); LAMPU rating (Lamium purpureum (LAMPU) [17]; dose 0.1 kg/ha): 8 (8 - Approaching complete kill); LAMPU rating (Lamium purpureum (LAMPU) [17]; dose 0.4 kg/ha): 8 (8 - Approaching complete kill); MATIN rating ([18]; dose 0.03 kg/ha): 6 (6 - Herbicidal effect); MATIN rating ([18]; dose 0.1 kg/ha): 8 (8 - Approaching complete kill); MATIN rating ([18]; dose 0.4 kg/ha): 9 (9 - Complete kill); SOLNI rating (Solanum nigrum (SOLNI); dose 0.03 kg/ha): 7 (7 - Good herbicidal effect); SOLNI rating (Solanum nigrum (SOLNI); dose 0.1 kg/ha): 8 (8 - Approaching complete kill); SOLNI rating (Solanum nigrum (SOLNI); dose 0.4 kg/ha): 8 (8 - Approaching complete kill); STEME rating (Stellaria media (STEME) [19]; dose 0.03 kg/ha): 4 (4 - Injury); STEME rating (Stellaria media (STEME) [19]; dose 0.1 kg/ha): 6 (6 - Herbicidal effect); STEME rating (Stellaria media (STEME) [19]; dose 0.4 kg/ha): 8 (8 - Approaching complete kill); ALOMY rating ([20]; dose 0.03 kg/ha): 2 (2 - Slight effect); ALOMY rating ([20]; dose 0.1 kg/ha): 5 (5 - Definite injury); ALOMY rating ([20]; dose 0.4 kg/ha): 8 (8 - Approaching complete kill); DIGSA rating ([21]; dose 0.03 kg/ha): 7 (7 - Good herbicidal effect); DIGSA rating ([21]; dose 0.1 kg/ha): 9 (9 - Complete kill); DIGSA rating ([21]; dose 0.4 kg/ha): 9 (9 - Complete kill)

Source: patent US6852673B2, “Herbicidal pyridine compounds” (BASF Aktiengesellschaft, priority 1998, dated 2005)
